Test results as given in patent publication US20040229791A1, “Compositions and methods of modulating TGF-beta activity by fatty acids” (priority 2002, published 2004).

Legend:
TGF-β2-α2M* complex = molecular target: T1, TGF-β2-α2M* complex (Homo sapiens, UniProt P01023); assay: Inhibition of 125I-TGF-β2 and α2M* complex formation (5% non-denaturing PAGE); type: binding; details: 30% inhibition
T1 construct: was purified from pooled citrate-treate human plasma; from tissue; host or cells: pooled citrate-treated human plasma
T1 sequence (P01023 24-1474): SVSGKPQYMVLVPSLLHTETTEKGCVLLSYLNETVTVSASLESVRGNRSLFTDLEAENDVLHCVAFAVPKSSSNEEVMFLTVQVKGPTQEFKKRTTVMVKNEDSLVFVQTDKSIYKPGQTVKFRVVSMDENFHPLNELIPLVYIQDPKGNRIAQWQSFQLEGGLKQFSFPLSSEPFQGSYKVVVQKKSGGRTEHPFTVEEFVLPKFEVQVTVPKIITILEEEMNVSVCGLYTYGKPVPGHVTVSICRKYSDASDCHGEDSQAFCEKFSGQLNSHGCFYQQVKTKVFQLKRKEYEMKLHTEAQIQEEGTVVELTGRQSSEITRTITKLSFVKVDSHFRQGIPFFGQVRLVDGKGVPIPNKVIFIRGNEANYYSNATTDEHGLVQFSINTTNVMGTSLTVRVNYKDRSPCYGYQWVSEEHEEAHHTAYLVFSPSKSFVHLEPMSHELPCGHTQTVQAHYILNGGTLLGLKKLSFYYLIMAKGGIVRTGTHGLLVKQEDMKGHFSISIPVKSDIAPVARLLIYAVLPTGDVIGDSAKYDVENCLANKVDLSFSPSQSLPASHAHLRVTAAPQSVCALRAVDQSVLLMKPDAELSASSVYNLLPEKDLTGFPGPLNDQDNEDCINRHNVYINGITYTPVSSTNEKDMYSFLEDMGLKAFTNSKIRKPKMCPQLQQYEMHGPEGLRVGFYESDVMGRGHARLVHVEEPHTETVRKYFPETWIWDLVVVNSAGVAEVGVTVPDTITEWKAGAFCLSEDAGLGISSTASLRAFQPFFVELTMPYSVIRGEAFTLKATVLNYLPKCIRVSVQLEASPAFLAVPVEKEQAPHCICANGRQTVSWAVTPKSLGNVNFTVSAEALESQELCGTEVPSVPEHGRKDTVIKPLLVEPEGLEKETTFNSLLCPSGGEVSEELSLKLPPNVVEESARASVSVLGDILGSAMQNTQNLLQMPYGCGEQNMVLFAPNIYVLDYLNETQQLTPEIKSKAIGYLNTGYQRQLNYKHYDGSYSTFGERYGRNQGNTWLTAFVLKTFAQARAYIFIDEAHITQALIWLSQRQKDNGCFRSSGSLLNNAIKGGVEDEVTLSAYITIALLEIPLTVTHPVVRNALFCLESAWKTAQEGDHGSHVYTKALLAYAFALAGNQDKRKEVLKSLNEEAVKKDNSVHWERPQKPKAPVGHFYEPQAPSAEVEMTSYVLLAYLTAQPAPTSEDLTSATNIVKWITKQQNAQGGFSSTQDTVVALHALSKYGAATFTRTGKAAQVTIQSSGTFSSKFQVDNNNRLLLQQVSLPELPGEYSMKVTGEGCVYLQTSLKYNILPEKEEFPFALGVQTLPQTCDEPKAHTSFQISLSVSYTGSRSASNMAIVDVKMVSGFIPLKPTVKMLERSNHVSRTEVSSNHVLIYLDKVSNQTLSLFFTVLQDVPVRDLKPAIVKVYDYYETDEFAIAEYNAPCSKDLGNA
Method: TGF- ? isoforms bind to α2M* with different affinities: TGF ? β2>TGF ? β1 ( active sites of TGF ? β1 and TGF- ? 2 responsible for high-affinity binding to ? 2M* are disti from the low-affinity ? 2M* binding site in TGF- ? 3 (19). To determine if fatty acids differentially affect the binding of TGF- ? isoforms to ? 2M*, the effects of various concentrations of arachidonic acid and myristic acid on complex formation of ^125I-labeled TGF ? β isoforms and ? 2M were determined*. […] It inhibited 30% of the complex form . α2M* and TGF ? β2 and TGF ? β3 at 100 and >250 μM, respectively. Arachidon polyunsaturated fatty acid, was a stronger inhibitor of complex formation of ? 2M* and TGF-.β2/TGF ? β3. It inhibited 50% of the complex formation of ? 2M* and ^125I-TGF- ? 2 at 50 μM (FIG. 3A). The observation that myristic acid and arachidonic acid inhibited complex formation of ^125I-TGF- ? […] 2M* complexes in the reaction mixtures were then analyzed by 7.5% SDS-PAGE and autoradiography.
Complex formation of ^125I-TGF-β and ? […] After 30 min at room temperature, the complex formation of ^125I-TGF- ? and. α2M* was determined by 5% non-denaturing polyacrylamide gel electrophoresis (PAGE) or by 7.5% SDS-PAGE following cross-linking by 0.6 mM DSS. After electrophoresis, the gel was stained with Coomassie blue and analyzed by autoradiography. […] 2M* was quantified using a PhosphoImager (Fuji).

125I-TGF-β1-α2M* complex = molecular target: T2, 125I-TGF-β1-α2M* complex (Homo sapiens, UniProt P01023); assay: Dissociation of preformed 125I-TGF-β1-α2M* complex; type: binding; details: at 250 μM
T2 construct: was purified from pooled citrate-treate human plasma; from tissue; host or cells: pooled citrate-treated human plasma
T2 sequence (P01023 24-1474): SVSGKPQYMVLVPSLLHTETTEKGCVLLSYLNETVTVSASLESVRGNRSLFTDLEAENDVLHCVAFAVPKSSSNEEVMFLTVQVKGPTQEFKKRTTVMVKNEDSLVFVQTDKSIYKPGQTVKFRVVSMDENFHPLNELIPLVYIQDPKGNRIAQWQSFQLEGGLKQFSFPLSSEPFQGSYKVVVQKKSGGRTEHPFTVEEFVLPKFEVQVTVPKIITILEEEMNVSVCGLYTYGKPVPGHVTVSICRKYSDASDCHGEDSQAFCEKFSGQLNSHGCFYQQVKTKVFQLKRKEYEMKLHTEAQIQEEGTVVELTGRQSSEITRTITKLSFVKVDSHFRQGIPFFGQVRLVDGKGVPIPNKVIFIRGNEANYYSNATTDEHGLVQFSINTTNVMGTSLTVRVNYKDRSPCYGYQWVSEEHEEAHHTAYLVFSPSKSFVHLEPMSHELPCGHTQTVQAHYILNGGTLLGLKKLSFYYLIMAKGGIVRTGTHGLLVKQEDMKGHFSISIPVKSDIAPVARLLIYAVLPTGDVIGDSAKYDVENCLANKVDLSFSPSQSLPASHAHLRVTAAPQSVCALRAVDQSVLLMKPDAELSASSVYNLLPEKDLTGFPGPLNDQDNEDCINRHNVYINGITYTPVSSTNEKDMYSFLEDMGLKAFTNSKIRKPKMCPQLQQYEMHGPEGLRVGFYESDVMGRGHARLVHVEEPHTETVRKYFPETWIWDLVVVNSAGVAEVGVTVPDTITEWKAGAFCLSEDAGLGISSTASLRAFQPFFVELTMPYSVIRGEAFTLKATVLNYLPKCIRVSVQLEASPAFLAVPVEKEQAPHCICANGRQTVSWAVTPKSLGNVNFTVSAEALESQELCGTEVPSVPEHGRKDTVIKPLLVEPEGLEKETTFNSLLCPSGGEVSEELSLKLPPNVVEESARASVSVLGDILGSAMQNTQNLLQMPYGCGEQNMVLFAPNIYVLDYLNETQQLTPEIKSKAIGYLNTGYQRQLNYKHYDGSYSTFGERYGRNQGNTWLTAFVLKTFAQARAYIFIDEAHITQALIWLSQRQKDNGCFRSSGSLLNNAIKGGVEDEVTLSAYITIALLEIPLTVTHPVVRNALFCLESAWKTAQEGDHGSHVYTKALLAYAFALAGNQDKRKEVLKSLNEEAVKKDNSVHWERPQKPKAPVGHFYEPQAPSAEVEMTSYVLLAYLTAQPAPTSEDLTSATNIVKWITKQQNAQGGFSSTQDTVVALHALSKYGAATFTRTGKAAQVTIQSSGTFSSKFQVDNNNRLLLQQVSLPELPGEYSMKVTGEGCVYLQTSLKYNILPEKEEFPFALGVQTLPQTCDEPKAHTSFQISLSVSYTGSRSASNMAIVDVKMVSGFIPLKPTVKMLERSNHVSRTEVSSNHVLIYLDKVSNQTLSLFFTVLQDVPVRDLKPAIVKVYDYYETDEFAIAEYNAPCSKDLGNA
Method: To determine whether fatty acids are capable of dissociating TGF- ? - ? 2M* complexes, various concentrations of arachidonic acid were added to a reaction mixture containing ^125I-TGF- ? 1 or ^125I-TGF ? β3 and α2M* which had been preincubated at room temperature for 30 mi 30 minutes at room temperature, the ^125I-TGF ? β isoform-α2M* complexes in the reaction mixtures were analyzed by 5% non-denaturing PAGE. […] However, lower concentrations of arachidonic acid were effective in inhibiting complex formation of ^125I-TGF- ? 1 and α2M* than were required to dissociate the ^125I-TGF- ? 1- ? 2M* complex.

CCCCCCCCCCCCCC(=O)O [myristic acid]
concentration that inhibited 30% of the complex formation of α2M* and TGF-β2 (TGF-β2-α2M* complex): 100 µM | dissociation of the 125I-TGF-β1-α2M* complex (125I-TGF-β1-α2M* complex): inactive
